Data as given in patent US20260216183A1 (SHENZHEN NEWDEL BIOTECH CO., LTD., priority 2023, published 2026).

Assays:
[1] = tested on: OXA-induced atopic dermatitis mouse model; test: OXA-induced atopic dermatitis mouse model, oral administration; assay type: in vivo, Balb/c mice; conditions: for Pinna thickness change rate at time point, Significance level: 17 mpk p.o. once daily
Procedure: (§1) (1) Screening and grouping: 60 female 6- to 8-week-old Balb/c mice in total were used as experimental animals in this project, which were obtained from Shanghai Model Organisms Center, Inc. The first grouping was done before the start of the experiment. […] (2) Animal modeling: The day when the first grouping was done was designated as day (−7). The backs of the mice were depilated with depilatory cream (area of about 2 cm×3 cm). […] The 1% OXA solution was prepared by weighing 0.1 g of OXA powder, adding 10 mL of an acetone solution, mixing well, and dissolving. […] (3) The administration mode of the test substance: […] The mice were sacrificed on day 21. The skin of the right ear of the mice was left for pathological examination. The thickness of the epidermal layer and inflammatory cell infiltration were measured by H&E staining, and the thickness of the dermis layer was measured by Masson staining.

[2] = Mouse body weight change in the oral administration experiment; assay type: in vivo, Balb/c mice; conditions: 17 mpk p.o. once daily 22 days; vs group 2 (vehicle)
Procedure: as §1

[3] = 17 mpk p.o. once daily 22 days, vs group 2 (vehicle)

## CCCS(=O)(=O)N[C@H]1C[C@@H](N(C)c2ncnc3[nH]ccc23)C1 [Abrocitinib, reference compound]
[1]; 17 mpk p.o. once daily 22 days, compared to G2 (vehicle)
  Inflammatory cell content in right ear tissue, Significance level: * (*p<0.05)
[1]; [3]
  Clinical scores of dorsal skin, Significance level: * (*p<0.05)
  Rate of change in the thickness of the pinna of the right ear, Significance level: **** (****p<0.0001)
  Thickness of dermis layer of right ear, Significance level: *** (***p<0.001)
  Thickness of epidermal layer of right ear, Significance level: ns (p>0.05)
[1]; day 3, vs group 2 (vehicle)
  Pinna thickness change rate at time point, Significance level: ns (p>0.05)
[1]; day 5, vs group 2 (vehicle)
  Pinna thickness change rate at time point, Significance level: ns (p>0.05)
[1]; day 7, vs group 2 (vehicle)
  Pinna thickness change rate at time point, Significance level: ns (p>0.05)
[1]; day 10, vs group 2 (vehicle)
  Pinna thickness change rate at time point, Significance level: ** (**p<0.01)
[1]; day 12, vs group 2 (vehicle)
  Pinna thickness change rate at time point, Significance level: * (*p<0.05)
[1]; day 14, vs group 2 (vehicle)
  Pinna thickness change rate at time point, Significance level: ** (**p<0.01)
[1]; day 17, vs group 2 (vehicle)
  Pinna thickness change rate at time point, Significance level: ns (p>0.05)
[1]; day 19, vs group 2 (vehicle)
  Pinna thickness change rate at time point, Significance level: ** (**p<0.01)
[1]; day 21, vs group 2 (vehicle)
  Pinna thickness change rate at time point, Significance level: * (*p<0.05)
[1]; right ear tissue, 17 mpk p.o. once daily 22 days, Mean ± SEM
  Number of inflammatory cells per mm: 236 ± 26.59 cells per mm
[2]
  Rate of change in body weight, Significance level: ns (p>0.05)
